Measured values from patent US20160194359A1, “CELL-REACTIVE, LONG-ACTING, OR TARGETED COMPSTATIN ANALOGS AND RELATED COMPOSITIONS AND METHODS” (APELLIS PHARMACEUTICALS, INC., priority 2012, published 2016).

Experiments:
PNH RBCs = experiment: modified Ham's assay, comparison with Soliris (Example 19); assay type: cell-based, human; details: CA28-2GS-BF at 50 ug/ml
Method: Flow cytometry was performed after antibody staining using antibodies against CD59 and C3d. In this figure, quadrant 1 (Q1) and quadrant 3 (Q3) represent Type III cells. Quadrant 2 (Q2) and quadrant 4 (Q4) represent Types I and II cells. Q1 and Q2 represent cells with a significant and abnormally high amount of C3 activation product (e.g., C3d) deposition.

[1] = test system: complement activation via the classical pathway; experiment: classical complement inhibition assay (C3b deposition ELISA); assay type: biochemical, Human
Method: Inhibitory activity of the synthesized compounds was assessed by measuring the effect of the compounds on complement activation via the classical pathway using a standard complement inhibition assay. The protocol measures C3b deposition in an ELISA format. C3b deposition monitored using this method is generated through complement activated by the classical pathway. Briefly, 96-well plates are coated with BSA. Human plasma, chicken ovalbumin (OVA), polyclonal anti-OVA antibodies and compound being tested (referred to as “drug”) are added and incubated, followed by addition of Anti-human C3 HRP-conjugated antibody. After an additional incubation, substrate is added and signal detected. Details of the protocol are as follows:
Protocol for Classical Complement Inhibition Assay
• Ninety-six well plate (polystyrene plate, Thermo Scientific, 9205) • Chicken OVA (Sigma A5503-5G) • Rabbit anti-chicken OVA (Abcam ab1221) • Blocking buffer (Startingblock buffer, Thermo Scientific 37538) • Veronal Buffer (5× concentration, Lonza 12-624E) • Human plasma (collected with Lepirudin at 50 ug/ml final concentration) • Goat anti-human C3 HRP-conjugated Ab (MP Biomedicals, 55237) • Tween-20 Wash Buffer (0.05% Tween 20-PBS buffer) • TMB (Peroxidase substrate, BD 555214)—1:1 mixture of BD 51-2607KC and 51-2606KC. • 1M H2SO4
• 1. […] Read the plate at 450 nm
Data was analyzed using GraphPad Prism5 software. […]

[2] = test system: RBCs from a patient with PNH; experiment: modified Ham's test with flow cytometry for CD59 and C3d (Example 18); assay type: cell-based, human; details: for % C′3 (Type I) / % C′3 (Type II) / % C′3 (Type III): cells positive for C3 loading
Method: A modified Ham's test was performed to assess the ability of compstatin analogs to protect PNH RBCs from complement-mediated lysis. […] Exposure to heat inactivated human serum was used as a control representing no significant complement-mediated lysis as complement is inactivated by heat. Exposure to acidified human serum and magnesium (Mg^2+) in the absence of complement inhibitors (pane labeled Mg^2+) was used as a control representing maximum lysis.
Following incubation, cells were stained with antibodies to CD59 and C3d. Cd59 level permitted the classification of the PNH RBCs as Type I, Type II, or Type III. Staining for C3d, a product of C3 activation and cleavage was used as a marker of C3 and C3 activation product deposition (loading). Flow cytometric analysis was performed to assess CD59 and C3d on RBC surfaces and to quantify the percentages of Type I, Type II, and Type III cells present in various samples.
Type I cells (shown in orange in FIG. 12) have normal levels of CD59. Type III cells (shown in blue in FIG. 12) have essentially no detectable CD59. […] Type II cells (shown in purple in FIG. 12) have reduced levels of CD59 as compared with normal or Type I cells and have an intermediate sensitivity to complement-mediated lysis. […] Reduction in or absence of lysis may be evidenced by increased levels of C3 or C3 activation products on Type II cells, as is evident by comparing the level of C3d on Type II cells in the no lysis panel with the level of C3d on Type II cells in the max. lysis panel in both FIGS. 12(A) and 12(B). […] A shift in the relative percentages of Type I, II, and III cells from the percentages present in the max. lysis control panels (Mg^2+) towards the percentages present in the no lysis control panels (heat inactivated serum) is indicative of protection against complement-mediated lysis. The column labeled % C′3 in Table 11 refers to the percentage of cells deemed “positive” for presence of C3 and C3 activation products (“C3 loading”).

[3] = test system: complement activation (alternative pathway); details: WO2004/026328; cited from earlier work
[4] = target: T1, complement component C3 (human) (human, UniProt P01024 23-1663); experiment: cell-based or functional assay
[5] = target: T1, complement component C3 (human); experiment: cell-based or functional assay; remark: listed apart in the source
[6] = target: T1, complement component C3 (human); experiment: cell-based or functional assay; remark: listed apart in the source

CA28-2GS-BF: two CA28-AEEAc-Lys moieties coupled to bifunctional linear 40 kD PEG, NHS-OCO(CH2)3COO-PEG-CO(CH2)3COO-NHS
Q1 # Events (PNH RBCs; Q1 = Type III cells with abnormally high C3d deposition): 23 | Q3 # Events (PNH RBCs; Q3 = Type III cells without significant C3d deposition): 153,187 | Q4 # Events (PNH RBCs; Q4 = Types I and II cells without significant C3d deposition): 95,713 | deposition of C3d / C3 activation products on PNH RBCs (PNH RBCs; activated complement): essentially no deposition of C3d | activity per compstatin analog (peptide) moiety compared with CA28 [1]: less than the activity of an individual CA28 molecule | complement inhibiting activity compared with CA28 on a molar basis [1]: virtually identical | C3 loading on PNH red cells ([2]; at 100 micrograms/ml compound or higher concentrations): virtually no C3 loading | Type III % ([2]; compound at 20 micrograms/ml): 19.19% | % C′3 (Type I) ([2]; compound at 20 micrograms/ml): 2.18% | % C′3 (Type II) ([2]; compound at 20 micrograms/ml): 12.28% | % C′3 (Type III) ([2]; compound at 20 micrograms/ml): 0.99% | % C′3 (Type I) ([2]; compound at 40 micrograms/ml): 2.84% | % C′3 (Type III) ([2]; compound at 40 micrograms/ml): 1.21% | Type III % ([2]; compound at 50 micrograms/ml): 13.87% | % C′3 (Type I) ([2]; compound at 50 micrograms/ml): 2.28% | % C′3 (Type III) ([2]; compound at 50 micrograms/ml): 1.29% | % C′3 (Type I) ([2]; compound at 60 micrograms/ml): 2.05% | % C′3 (Type II) ([2]; compound at 60 micrograms/ml): 13.04% | % C′3 (Type III) ([2]; compound at 60 micrograms/ml): 1.44% | Type II % ([2]; compound at 100 micrograms/ml): 53.93% | % C′3 (Type I) ([2]; compound at 100 micrograms/ml): 0.07% | % C′3 (Type II) ([2]; compound at 100 micrograms/ml): 0.88% | % C′3 (Type III) ([2]; compound at 100 micrograms/ml): 0.11% | Type II % ([2]; compound at 200 micrograms/ml): 51.99% | % C′3 (Type I) ([2]; compound at 200 micrograms/ml): 0.02% | % C′3 (Type II) ([2]; compound at 200 micrograms/ml): 0.26% | % C′3 (Type III) ([2]; compound at 200 micrograms/ml): 0.02% | Type II % ([2]; compound at 500 micrograms/ml): 51.87% | Type III % ([2]; compound at 500 micrograms/ml): 37.87% | % C′3 (Type I) ([2]; compound at 500 micrograms/ml): 0.04% | % C′3 (Type II) ([2]; compound at 500 micrograms/ml): 0.3% | % C′3 (Type III) ([2]; compound at 500 micrograms/ml): 0.05%

CC[C@H](C)[C@H](N)C(=O)N[C@H]1CSSC[C@@H](C(=O)N[C@H](C(N)=O)[C@@H](C)O)NC(=O)[C@H](CCCN=C(N)N)NC(=O)[C@H](Cc2cnc[nH]2)NC(=O)[C@H](Cc2cnc[nH]2)NC(=O)CNC(=O)[C@H](Cc2c[nH]c3ccccc23)NC(=O)[C@H](CC(=O)O)NC(=O)[C@H](CCC(N)=O)NC(=O)[C@H](C(C)C)NC(=O)[C@H](C(C)C)NC1=O [Compstatin]
IC50 [3]: 12000 nM

B1: (CA28-AEEAc)8-PEG40k (peptide)
peptide: ICVWQDWGAHRCTK
modifications: N-terminal acetyl; 1-methyl-tryptophan at position 4; disulfide Cys2-Cys12; AEEAc linker after Thr13; Lys side chain coupled to one arm of an eight-arm 40 kD PEG (NOF HGEO-400GS); C-terminal amide
IC50 on a molar basis, classical complement inhibition assay [4]: ~260 nM | IC50, classical complement inhibition assay (C3b deposition ELISA), as a function of CA28 concentration [5]: 1930 nM

B2: CA28-2TS-BF (bifunctionalized PEG-based compstatin analog, TS type) (peptide)
peptide: ICVWQDWGAHRCTK
modifications: N-terminal acetyl; 1-methyl-tryptophan at position 4; disulfide Cys2-Cys12; AEEAc linker after Thr13; Lys side chain coupled through a carbamate to one end of a bifunctional linear 40 kD PEG (TS type); C-terminal amide
IC50 (read off the curve); alternative pathway complement activation (LPS-coated plate, C3b deposition ELISA, human plasma) [B] [6]: ~400 nM
